Data: US7553826B2, “Cytarabine monophosphate prodrugs” (Metabasis Therapeutics, Inc., priority 2002, dated 2009)
Values after ≈ are worked out from the molar mass of the structure shown. Each block holds one compound with its values, some of them ahead of it.

Legend:
[1] = Single dose i.p. bolus liver levels / liver targeting in mice; details: for reduction of peripheral exposure (liver targeting): administered intraperitoneally
Procedure: At specified times post injection, mice were anesthetized and exsanguinated via cardiac puncture. The whole liver was removed, and snap-frozen in liquid nitrogen, and homogenized using a Polytron homogenizer PT 10/35 (Brinkmann Instruments, Westbury, N.Y.) in 3 volumes of 10% (v/v) perchloric acid (PCA). After a 5 min centrifugation at 2,500×g, 1 mL of supernatant was neutralized using 0.3 mL 3 M KOH/3 M KHCO3 and mixed thoroughly. Samples were then centrifuged for 5 minutes and resulting supernatants were treated with periodate in order to remove endogenous ribonucleotides which otherwise might interfere with araCTP detection. […] Resulting samples were analyzed by HPLC as described below.
To measure bone marrow araCTP, the bone marrow samples were flushed from the marrow cavities of femurs with 1.2 ml saline into pre-weighed Eppendorf tubes. After centrifugation for 20-30 seconds (Eppendorf microfuge, 14,000 rpm) and removal of the supernatant, 12 volumes of 3% PCA (v/v) were added to the bone marrow cell pellets. Samples were then vortexed until the pellet was well dissolved and centrifuged as above for 10 min. Ninety μL of extracted supernatant was neutralized to pH 7-8 using 30 μL 1 M KOH/1 M KHCO3 and again centrifuged. Resulting supernatants were periodate-treated as above.
Samples (50 μL) were injected onto the column in 70% 10 mM ammonium phosphate buffer and 30% 1 M ammonium phosphate buffer, both at pH 3.5 and containing 6% ethanol. […] A standard curve was prepared by adding known amounts of araCTP into PCA extracts from control liver or bone marrow prior to neutralizing, and preparing HPLC samples accordingly.
To obtain plasma, blood was transferred to heparinized micro-collection tubes and centrifuged in an Eppendorf microfuge at 14,000 rpm for 2 minutes. Resulting plasma was collected, placed on dry ice, and subsequently stored at −20° C. On the day of analysis, proteins were precipitated by adding 1 mL acetonitrile to 100 μL of plasma. After 10 min centrifugation (Eppendorf microfuge, 14,000 rpm), the supernatant was removed and dried in a Savant SpeedVac Plus SC110A. Samples were reconstituted with 110 μL of mobile phase buffer (20 mM KH2PO4, pH 4.5), sonicated for 5 min, and centrifuged for 30 seconds. […] AraC and prodrugs were detected by absorbance at 280 nm and quantitated using standard curves obtained with spiked plasma samples processed as above.
Results are expressed as mean±standard error of the mean. Data were analyzed by repeated measures ANOVA, followed by the Tukey HSD post-hoc test for comparisons at individual time points when appropriate. A p-value of less than 0.05 was considered statistically significant. Dotted lines in figures indicate LOQ (limit of quantitation) using the indicated HPLC method.
(§1) In those studies, liver, plasma and bone marrow samples were obtained at necropsy to evaluate liver targeting.
(§2) Results are expressed as mean±standard error of the mean. When appropriate, AUC was calculated from time zero to the last time-point of the study. Liver targeting indices (LTIs) were calculated by dividing the liver araCTP AUC by the AUC for plasma araC (plasma LTI) or by the AUC for bone marrow araCTP (bone marrow LTI) for each compound. For the continuous infusion studies, the steady state araCTP levels were divided by the steady state plasma araC levels.

[2] = Mouse 5-day safety pharmacology; type: in vivo; details: mice; for histopathology of liver, kidney and small intestine: 100 mg/kg araC or 1000 mg/kg CE Compound C; for red blood cell parameters (erythrocyte numbers, hematocrit, hemoglobin): 5 days i.p.; for red blood cell parameters (erythrocyte numbers, hematocrit, hemoglobin) / Glucose: araC 30 and 100 mg/kg/day; for effect on body weight: daily i.p. 5 days, highest dose: araC 100 mg/kg/day; for Glucose: Compound C 1000 mg/kg/day
Procedure: AraC was purchased from Sigma Chemical Co. (St. Louis, Mo., catalog # C1768, lot # 39H5962). Compound C and araC were dissolved in sterile physiological saline. Stock solutions were prepared daily from pre-weighed drug. All but the highest concentrations were prepared by diluting the stock solutions using additional sterile saline. Any drug not used immediately was refrigerated and used within 24 hours. All prodrugs were dosed in cytarabine molar equivalents (CE).
Male NIH Swiss Webster mice (25 to 33 g body weight, Harlan Sprague Dawley, Indianapolis, Ind.) were injected i.p. with Compound C, araC or vehicle once a day on days 0-4, approximately 3 to 4 hours following the beginning of the vivarium light cycle. Doses for Compound C were 1000, 300, 100 and 30-mg/kg nucleoside equivalents/day (equal to 1848, 554, 185 and 55.4 mg/kg/day) whereas araC was administered at 100, 30, 10 and 3 mg/kg/day. The vehicle was saline. Body weights were recorded on days 0-4 immediately prior to compound administration and on day 5 prior to sacrifice. All mice were sacrificed on day 5 (23-25 hours following the last i.p. dose) by exsanguination under halothane anesthesia, and subsequent cervical dislocation. The blood from each animal was analyzed for blood chemistry and hematology parameters as described in Example H. Livers were excised and fixed in neutral-buffered 10% formalin, and bone marrow was flushed from the right femur using 1 ml PBS without calcium or magnesium and nucleated cell counts measured as in Example H.
EDTA-treated blood samples were submitted to LabCorp (LabCorp, San Diego, Calif.) for hematology analysis including erythrocyte and platelet numbers, hemoglobin, and hematocrit. Serum chemistry analysis was also performed by LabCorp. Tissue specimens from mice treated with vehicle or 100 mg/kg araC or 1000 mg/kg CE Compound C were coded and shipped in formalin to Comparative Biosciences (Mountain View, Calif.) for preparation of hematoxylin/eosin-stained tissue sections and histopathology evaluation. Specimen codes for the histopathology studies were: #1-7, Compound C 1000 mg/kg/day; #33-40, araC 100 mg/kg/day; #65-72, Saline vehicle.
Results are expressed as mean±standard error for 5-8 animals per dose group. For selected hematology parameters, data for each animal were also presented as a % of the mean of the vehicle group. Statistical analysis was performed by one-way ANOVA followed by Dunnett's post-hoc test for differences between a control group and multiple dose groups. A p-value of less than 0.05 was considered statistically significant.

[3] = Liver araCTP and liver targeting with continuous i.v. infusion in rats
Description: A saline filled blunt PE-50 tubing catheter (Intramedic, Becton Dickinson, Sparks, Md.) was inserted into the jugular vein, exteriorized between the scapulae and connected to a swivel-tethering constant infusion system (Lomir Biomedical, Inc., Malone, N.Y. and Harvard Apparatus, Inc., South Natick, Mass.). The tubing was filled with heparinized saline and sealed, and the animals allowed to recover for one to seven days.
After the various durations of infusion the animals were anesthetized by intra-catheter injections of the anesthetic mix described above. Blood samples were obtained via cardiac puncture using a 23-gauge needle attached to a heparin coated 3 cc syringe.
as §1, §2

Aqueous stability = type: physicochemical; details: 50 μM
Procedure: Diluted solutions (50 μM) were incubated at 37° C. in a Fisher Scientific dry bath incubator (catalog # 11-718-2) with samples collected every 24 hours and stored at −80° C. Plasma samples (100 μL) were quenched with 1 mL of acetonitrile. […] Samples were resuspended in 120 μL of mobile phase buffer before HPLC injection.
Samples were analyzed on an HP1090 or HP1100 (Hewlett Packard) HPLC using a C-18 Alltech Econosphere column, 150 mm×4.6 mm (catalog # 70065), with a C-18 Alltech Econosphere guard column, 7.5 mm×4.6 mm (catalog # 96121). Samples were eluted with a methanol gradient: 0% for 5 minutes, then increasing to 10% at 10 minutes, 30% at 20 minutes, and 60% at 25 minutes. The column was allowed to equilibrate in 0% methanol for 10 minutes before the next injection. The flow rate was 1 mL/minute with a column temperature of 40° C. Prodrugs eluted around 19.5 minutes and were monitored by UV absorbance at 280 nm. For prodrugs in aqueous conditions, the same method was employed except the methanol gradient was as follows: 0% for 5 minutes, increasing to 10% at 10 minutes, and 30% at 20 minutes with prodrug eluting around 20 minutes.

human liver microsomes = assay: Enzyme kinetics of prodrug activation to araCMP in human liver microsomes; details: activation to araCMP
Solubility = type: physicochemical
Procedure: With each of the three buffer systems, saturating solutions of Compound A and Compound B were prepared as follows. […] The resultant vials were sealed and equilibrated by tumbling at 25° C. for a minimum of 24 h. At the end of the incubation period, prodrug that was not in solution was removed from the samples by filtration through a 0.45 μm pore size nylon syringe filter. These diluted samples were assayed by the HPLC method of example E.

[4] = Plasma stability in human plasma; type: in vitro ADME
Procedure: Male- and female-pooled human plasma (Bioreclamation Inc., Hickville, N.Y., catalog # […], lot # BRH02236) containing heparin as anticoagulant, pH of all plasma aliquots was 8.3. […] Samples (100 μL) were quenched with 1 mL of acetonitrile. […] Samples were resuspended in 120 μL of mobile phase buffer before HPLC analysis. For plasma samples, 40 μL or 50 μL samples were injected onto the column described in Example E with mobile phase buffer, 20 mM potassium phosphate buffer, pH 6.2 (Fisher Scientific, catalog # P261-1, various lots). All other HPLC analysis was performed as described in Example E.

[5] = Compound C 1000 mg/kg/day of nucleoside equivalents
[6] = rats, 200 mg CE/kg/day continuous intravenous infusion

AUC(0-t) ([1]; male, Swiss Webster, mouse, plasma, ip, 100 mg (cytarabine equivalents)/kg): 121 µM·h
Plasma araC steady state ([3]; rats, AraC at 2000 mg/kg/day continuous infusion): ~300 µM
SMILES: Nc1ccn([C@@H]2O[C@H](CO)[C@@H](O)[C@@H]2O)c(=O)n1 [AraC, 1-(β-D-Arabinofuranosyl)cytosine]
histopathology of liver, kidney and small intestine [2]: no toxicologically relevant histopathologic changes
hepatotoxicity ([2]; 5-day repeated dose): No hepatotoxicity was observed
number of nucleated bone marrow cells, circulating PMNs, mononuclear cells, and platelets ([2]; 30 and 100 mg/kg/day i.p. for 5 days): significantly decreased
red blood cell parameters (erythrocyte numbers, hematocrit, hemoglobin) [2]: lowered erythrocyte numbers, hematocrit, and hemoglobin significantly
Creatinine ([2]; araC 100 mg/kg/day): lowered
bone-marrow cellularity, % of that in vehicle-treated animals ([2]; araC 100 mg/kg/day i.p. for 5 days): 11%
effect on body weight [2, 5]: progressive and statistically significant drop in body weight
Alkaline phosphatase ([2]; highest dose of araC (100 mg/kg/day)): significantly decreased
Glucose [2]: lowered

SMILES: Nc1ccn([C@@H]2O[C@H](CO[P@]3(=O)OCC[C@H](c4ccncc4)O3)[C@@H](O)[C@@H]2O)c(=O)n1 [Compound B, 2(1H)-Pyrimidinone, 4-amino-1-[5-O-[(2S,4R)-2-oxido-4-(4-pyridinyl)-1,3,2-dioxaphosphorinan-2-yl]-β-D-arabinofuranosyl]]
Liver araCTP Peak @ 1 hr ([1]; Mouse, 100 mg (cytarabine equivalents)/kg single IP injection): 27 nmol/g
LTI (Liver/plasma) ([1]; Mouse, 100 mg CE/kg single IP, liver araCTP AUC / plasma araC AUC): 19.6 nmol/g/μM
reduction of peripheral exposure (liver targeting) [1]: ~20 fold
liver araCTP peak at 60 minutes post injection ([1]; mice, single i.p. bolus, 100 mg/kg CE): 27.00 ± 4.04 nmol/g
t90 in aqueous solution (Aqueous stability; 100 mM Pi, pH 7.4, 37° C): 4 days
t90 in aqueous solution (Aqueous stability; 100 mM citrate, pH5.0, 37° C): 1.7 days
Vmax (human liver microsomes; 2 mg/mL human liver microsomes lot RQX, 1 mM NADPH, pH 7.4, 37° C, 5 min): 0.13 ± 0.02 nmol/min/mg
Km (human liver microsomes; human liver microsomes lot RQX): 3.13 ± 0.51 mM
reduction of peripheral exposure (liver targeting) ([3]; administered by continuous intravenous infusion): ~10 fold
LTI @ 24 hrs (Liver/plasma) [3, 6]: >12 nmol/g/μM
Liver araCTP 24 hr [3, 6]: 5.9 nmol/g
Liver araCTP @ 4 hr [3, 6]: 6.4 nmol/g
Plasma Prodrug steady state [3, 6]: 25 to 35 µM
Plasma araC steady state [3, 6]: <0.5 µM
liver araCTP compared with Compound A ([3]; rats, continuous infusion 200 mg/kg/24 hours CE): less araCTP in the liver than Compound A
solubility (Solubility; 0.5 M Pi pH 8.0 buffer, 25° C): 10.2 mg/mL (≈ 23.2 mM)
solubility (Solubility; 0.5 M citrate pH 4.0, 25° C): 94.6 mg/mL (≈ 215 mM)
solubility (Solubility; 0.5 M citrate pH 7.0, 25° C): 9.0 mg/mL (≈ 20.4 mM)

SMILES: Nc1ccn([C@@H]2O[C@H](COP3(=O)OCCC(c4ccncc4)O3)[C@@H](O)[C@@H]2O)c(=O)n1 (relative stereo) [Compound C, 2(1H)-Pyrimidinone, 4-amino-1-[5-O-cis-[2-oxido-4-(4-pyridinyl)-1,3,2-dioxaphosphorinan-2-yl]-β-D-arabinofuranosyl]]
reduction of peripheral exposure (liver targeting) [1]: ~20 fold
histopathology of liver, kidney and small intestine [2]: no toxicologically relevant histopathologic changes
hepatotoxicity ([2]; 5-day repeated dose): No hepatotoxicity was observed
safety relative to araC in terms of hematologic endpoints ([2]; 5-day repeated dose): ≥ 30 fold
red blood cell parameters (erythrocyte numbers, hematocrit, hemoglobin) [2]: similarly affected these parameters, but at ten-fold higher doses
dose required to reduce nucleated bone marrow cells, relative to araC [2, 5]: 30 fold
PMN, mononuclear cell, or platelet numbers ([2]; any dose (30-1000 mg/kg/day CE) i.p. for 5 days): did not affect
effect on body weight [2, 5]: no significant effect
Glucose [2]: lowered
reduction of peripheral exposure (liver targeting) ([3]; rat, in vivo, iv): ~10 fold
half-lives in human plasma [4]: > 1 days
